Laboratory results reported in PubChem BioAssay (NCI).
Several values for one entry are separate records, joined by “and”; a condition that tells them apart may be missing. Equal entries are not always repeated.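 Following 48 hours of exposure in 96-well plates, responses at five concentrations were used to interpolate endpoints linearly. Abbreviation: GI50, concentration required for 50% inhibition of growth. TGI is the concentration that stops growth completely.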

Columns and labels:
Assay in all cases: NCI anticancer screen, dose series, 48 h
SW-620 colon = system: SW-620 colon
NCI-H522 lung = system: NCI-H522 lung
SF-268 CNS = system: SF-268 CNS
BT-549 breast = system: BT-549 breast
SN12C renal = system: SN12C renal
HCC-2998 colon = system: HCC-2998 colon
HCT-116 colon = system: HCT-116 colon
SNB-19 CNS = system: SNB-19 CNS

Structure (SMILES) | GI50 (SW-620 colon) | TGI (SW-620 colon) | GI50 (NCI-H522 lung) | TGI (NCI-H522 lung) | GI50 (SF-268 CNS) | TGI (SF-268 CNS) | GI50 (BT-549 breast) | TGI (BT-549 breast) | GI50 (SN12C renal) | TGI (SN12C renal) | GI50 (HCC-2998 colon) | TGI (HCC-2998 colon) | GI50 (HCT-116 colon) | TGI (HCT-116 colon) | GI50 (SNB-19 CNS) | TGI (SNB-19 CNS)
COC(=O)Nc1nc2ccc(Sc3ccc(NC(=O)Nc4cc(C(F)(F)F)ccc4F)cc3)cc2[nH]1 | 1.43 µM | 5.52 µM | 2.05 µM | 6.27 µM | 3.89 µM | 9.6 µM | 7.86 µM | 24.2 µM | 3.82 µM | 11 µM | 3.96 µM | 13.1 µM | 1.37 µM | 4.67 µM | 6.98 µM | 25 µM
O=C(NO)C(O)C(O)C(O)C(O)CO (stereo not given) | > 100 µM | > 100 µM | > 100 µM and 44.7 µM | > 100 µM | > 100 µM | > 100 µM | > 100 µM | > 100 µM | > 100 µM | > 100 µM | > 100 µM | > 100 µM | > 100 µM and 27.1 µM | > 100 µM and 73.5 µM | > 100 µM | > 100 µM
CCNC(=O)Oc1ccc(/C(=C(\C)c2ccc(Cl)cc2)c2ccc(OCCN3CCCCC3)cc2)cc1 | 2.2 µM | 4.97 µM | 14.1 µM | 29.9 µM | 6.04 µM | 20.9 µM | 4.27 µM | 16.6 µM | 5.95 µM | 19.2 µM | 3.53 µM | 13.4 µM | 1.69 µM | 3.22 µM | 4.77 µM | 16.2 µM
COc1ncnc2c(-c3ccco3)cn(COCc3ccccc3)c12 | > 50 µM | > 50 µM | 9.97 µM | > 50 µM | > 50 µM | > 50 µM |  |  | > 50 µM | > 50 µM | > 50 µM | > 50 µM | 3.76 µM | > 50 µM | > 50 µM | > 50 µM
CN1CCN(C(=S)SCN2C(=O)c3ccccc3S2(=O)=O)CC1 | 9.31 µM | 74.9 µM | 7.26 µM | 34.1 µM | 37.4 µM | > 100 µM | > 100 µM | > 100 µM | 52.5 µM | > 100 µM | 30.9 µM | 85.3 µM | 12.8 µM | 44.9 µM | > 100 µM | > 100 µM
O=[N+]([O-])c1cccc(-c2ncc(-c3ccc(Cl)cc3Cl)[nH]2)c1 | 1.6 µM | 3.16 µM | 10.3 µM | > 27.2 µM | 2.92 µM | 9.57 µM | 3.05 µM | 8.07 µM | 6.01 µM | 12.6 µM | 7.36 µM | 16.4 µM | 2.21 µM | 5.95 µM | 7.85 µM | 23.2 µM
CC1SC2(CCCCC2)N(NC(=O)c2[nH]c3ccc(F)cc3c2-c2ccccc2)C1=O (stereo not given) | > 100 µM | > 100 µM | 54.4 µM | > 100 µM | 78.7 µM | > 100 µM | > 100 µM | > 100 µM | 37.1 µM | > 100 µM | > 100 µM | > 100 µM | 64.9 µM | > 100 µM | 55.6 µM | > 100 µM
